Measured values reported in publication PMC7765500, “Siderophore Scaffold as Carrier for Antifungal Peptides in Therapy of Aspergillus fumigatus Infections” (Journal of Fungi, 2020).
≈ marks a conversion by molar mass, not a printed value. Where two headings read alike, the source gives them in different places. Square brackets hold non-standard residues; d marks the D form. Ends that are not written are not given here. Peptide text beside a SMILES is read from it.

Experiments:
[1] = system: A. fumigatus mutant strain ΔsidA/ΔftrA; experiment: Growth promotion assay; type: cell-based, Aspergillus fumigatus; settings: 72 h, 37 °C; for Concentration of sporulation / Concentration of growth induction / utilization: iron-depleted AMM, 0.1–50 µM tested; for Growth promotion (in words): visually assessed
Description: To assess the capability of A. fumigatus to utilize the modified siderophores, a mutant strain (ΔsidA/ΔftrA) that lacks the genes sidA and ftrA was used. These mutations impair both siderophore-mediated iron acquisition and reductive iron assimilation, in other words, high-affinity iron acquisition. If the activity of externally supplied siderophore was still intact, similar growth to [Fe]TAFC should be observed, however, in the case of growth reduction, it cannot be distinguished from antifungal activity. Spores (10^4) were point inoculated on solid 0.5 mL of AMM [26] in 24-well plates containing increasing concentrations of iron labelled siderophore ranging from 0.1–50 μM. Plates were incubated for 72 h at 37 °C in a humidity chamber and visually assessed.

[2] = system: A. fumigatus (ATCC 46645); type: cell-based, Aspergillus fumigatus; settings: for Antifungal activity lacking up to: medium and time not given
Method: (§1) Susceptibility tests were performed according to CLSI guidelines with slight modifications. In brief, 96-well plates (Greiner Bio-One GmbH) were prepared with 100 μL of 2 × AMM (Aspergillus minimal medium) or 0.2 × Potato Dextrose Broth (PDB) containing 3 × 10^4 spores of A. fumigatus (ATCC 46645) per well. An amount of 100μL antifungal, dissolved in water, was added to get a final concentration of 1 × AMM/0.1 × PDB medium and antifungal concentration ranging from 0.031–16 μg/mL.

[3] = system: A. fumigatus (ATCC 46645); type: cell-based, Aspergillus fumigatus
Method: as §1

[4] = cited from earlier work
[5] = type: physicochemical; settings: pH 7.4
Method: Aliquots of 50 µL of ^68Ga-labelled conjugate (~5 µM) were added to 450 µL of phosphate-buffered saline pH 7.4 (PBS) and 500 µL of Octanol into a 1.5 mL Eppendorf tube. The mixture was vigorously shaken for 20 min at 1400 rpm in a standard vortex (MS 3, IKA, Staufen, Germany) and hereafter, 200 µL of each phase removed and measured in a gamma counter (2480 automatic gamma counter Wizard2 3’’, Perkin Elmer, Waltham, MA, USA) LogD was calculated as the ratio of octanol/water phase using Excel. (n = 3, six technical replicates)

[6] = system: A. fumigatus; experiment: Uptake assay of 68Ga-labelled conjugates in A. fumigatus; type: cell-based, Aspergillus fumigatus; settings: iron-depleted AMM, 45 min, 37 °C
Method: Assays were performed as previously described. Briefly, uptake and competition assays were performed with A. fumigatus in iron-depleted and iron-replete Aspergillus minimal media (AMM), using a 96-well MultiScreen Filter Plates HTS (1 μm glass fiber filter, Merck Millipore, Darmstadt, Germany). Compounds were incubated for 45 min at 37 °C and filters measured in a gamma counter. Competition assays were performed in the same way except for pre-incubation with the iron-containing antifungal conjugates for 15 min, resulting in a competition at the MirB transporter to show specific binding to MirB.

Compound: CC(=O)NC1CCCN(O)C(=O)/C=C(/C)CCOC(=O)C(NC(=O)[C@@H](Cc2ccccc2)NC(=O)[C@H](CC(C)C)NC(=O)[C@H](CC(N)=O)NC(C)=O)CCCN(O)C(=O)/C=C(/C)CCOC(=O)C(NC(C)=O)CCCN(O)C(=O)/C=C(/C)CCOC1=O (some centres unmarked) [[Fe]DAFC-NLF-Ac]
- Concentration of sporulation [1]: 50 µM
- MIC 24 h ([2]; AMM, 37 °C, 24 h): >16 µg/mL
- MIC 48 h ([2]; AMM, 37 °C): >16 µg/mL
- MIC 24 h ([2]; ATCC 46645, 24 h): >12.5 µM
- Antifungal activity lacking up to [2]: > 16 µg/mL

Compound: CC(=O)N[C@H](CCCNC(=N)N)C(=O)N[C@H](CCCCN)C(=O)N[C@H](CCCCN)C(=O)N[C@H](Cc1c[nH]c2ccccc12)C(=O)N[C@H](Cc1ccccc1)C(=O)N[C@H](Cc1c[nH]c2ccccc12)C(N)=O [H2N-D-PAF26-Ac] (Ac-[dR][dK][dK][dW][dF][dW]-NH2)
- MIC 24 h ([2]; AMM, 37 °C, 24 h): >16 µg/mL
- MIC 48 h ([2]; AMM, 37 °C): >16 µg/mL
- MIC 24 h ([2]; ATCC 46645, 24 h): >16.1 µM
- MIC 24 h ([3]; 0.1 × PDB, 37 °C, 24 h): 16 µg/mL
- MIC 48 h ([3]; 0.1 × PDB, 37 °C): >16 µg/mL

Compound: CC(=O)NC1CCCN(O)C(=O)/C=C(/C)CCOC(=O)C(NC(=O)CCC(=O)N[C@@H](CC(N)=O)C(=O)N[C@@H](CC(C)C)C(=O)N[C@H](Cc2ccccc2)C(=O)O)CCCN(O)C(=O)/C=C(/C)CCOC(=O)C(NC(C)=O)CCCN(O)C(=O)/C=C(/C)CCOC1=O (some centres unmarked) [[Fe]DAFC-succ-NLF]
- Concentration of growth induction / utilization [1]: 10 to 50 µM
- Growth promotion (in words) [1]: very low growth promotion
- MIC 24 h ([2]; AMM, 37 °C, 24 h): >16 µg/mL
- MIC 48 h ([2]; AMM, 37 °C): >16 µg/mL
- MIC 24 h ([2]; ATCC 46645, 24 h): >12.0 µM
- Antifungal activity lacking up to [2]: > 16 µg/mL

Compound: CC(=O)N[C@H](CCCNC(=N)N)C(=O)N[C@H](CCCCN)C(=O)N[C@H](CCCCN)C(=O)N[C@H](Cc1c[nH]c2ccccc12)C(=O)N[C@H](Cc1ccccc1)C(=O)N[C@H](Cc1c[nH]c2ccccc12)C(N)=O [PAF26, Ac-dArg-dLys-dLys-dTrp-dPhe-dTrp-NH2, reference compound] (Ac-[dR][dK][dK][dW][dF][dW]-NH2)
- MIC / growth inhibition ([3]; 0.1 × PDB, incubation time not given): 8 µg/mL (≈ 8.07 µM)

Compound: triacetylfusarinine C [[^68Ga]Ga-TAFC]
- Biodistribution Blood 30 min ([4]; BALB/c mice, 30 min, blood): 1.60 ± 0.37 %ID/g
- Biodistribution Femur 30 min ([4]; BALB/c mice, 30 min, femur): 0.51 ± 0.79 %ID/g
- Biodistribution Heart 30 min ([4]; BALB/c mice, 30 min, heart): 0.67 ± 0.16 %ID/g
- Biodistribution Intestine 30 min ([4]; BALB/c mice, 30 min, intestine): 1.71 ± 10.04 %ID/g
- Biodistribution Kidneys 30 min ([4]; BALB/c mice, 30 min, kidneys): 5.51 ± 1.22 %ID/g
- Biodistribution Liver 30 min ([4]; BALB/c mice, 30 min, liver): 0.70 ± 0.04 %ID/g
- Biodistribution Lung 30 min ([4]; BALB/c mice, 30 min, lung): 1.54 ± 0.27 %ID/g
- Biodistribution Muscle 30 min ([4]; BALB/c mice, 30 min, muscle): 0.52 ± 0.25 %ID/g
- Biodistribution Pancreas 30 min ([4]; BALB/c mice, 30 min, pancreas): 0.42 ± 0.16 %ID/g
- Biodistribution Spleen 30 min ([4]; BALB/c mice, 30 min, spleen): 0.38 ± 0.11 %ID/g
- Biodistribution Stomach 30 min ([4]; BALB/c mice, 30 min, stomach): 0.77 ± 0.22 %ID/g
- Biodistribution Blood 90 min ([4]; BALB/c mice, 90 min, blood): 0.06 ± 0.04 %ID/g
- Biodistribution Femur 90 min ([4]; BALB/c mice, 90 min, femur): 0.15 ± 0.20 %ID/g
- Biodistribution Heart 90 min ([4]; BALB/c mice, 90 min, heart): 0.03 ± 0.01 %ID/g
- Biodistribution Intestine 90 min ([4]; BALB/c mice, 90 min, intestine): 1.03 ± 0.26 %ID/g
- Biodistribution Kidneys 90 min ([4]; BALB/c mice, 90 min, kidneys): 1.27 ± 0.39 %ID/g
- Biodistribution Liver 90 min ([4]; BALB/c mice, 90 min, liver): 0.15 ± 0.09 %ID/g
- Biodistribution Lung 90 min ([4]; BALB/c mice, 90 min, lung): 0.10 ± 0.03 %ID/g
- Biodistribution Muscle 90 min ([4]; BALB/c mice, 90 min, muscle): 0.03 ± 0.01 %ID/g
- Biodistribution Pancreas 90 min ([4]; BALB/c mice, 90 min, pancreas): 0.04 ± 0.01 %ID/g
- Biodistribution Spleen 90 min ([4]; BALB/c mice, 90 min, spleen): 0.05 ± 0.02 %ID/g
- Biodistribution Stomach 90 min ([4]; BALB/c mice, 90 min, stomach): 0.06 ± 0.02 %ID/g
- Metabolites on excretion through the urinary tract (in words) [4]: no metabolites detected

Compound: triacetylfusarinine C [[Fe]TAFC, reference compound]
- Concentration of growth induction / utilization [1]: 0.1 µM
- Concentration of sporulation [1]: 10 µM

Compound: CC(=O)N[C@@H](CC(N)=O)C(=O)N[C@@H](CC(C)C)C(=O)N[C@H](Cc1ccccc1)C(=O)O [HOOC-NLF-Ac] (Ac-Asn-Leu-[dF]-OH)
- MIC 24 h ([2]; AMM, 37 °C, 24 h): >16 µg/mL
- MIC 48 h ([2]; AMM, 37 °C): >16 µg/mL
- MIC 24 h ([2]; ATCC 46645, 24 h): >36.8 µM

Compound: CC(=O)NC1CCCN(O)C(=O)/C=C(/C)CCOC(=O)C(NC(=O)CCC(=O)N[C@@H](CCCNC(=N)N)C(=O)N[C@@H](CCCCN)C(=O)N[C@@H](CCCCN)C(=O)N[C@@H](Cc2c[nH]c3ccccc23)C(=O)N[C@@H](Cc2ccccc2)C(=O)N[C@@H](Cc2c[nH]c3ccccc23)C(N)=O)CCCN(O)C(=O)/C=C(/C)CCOC(=O)C(NC(C)=O)CCCN(O)C(=O)/C=C(/C)CCOC1=O (stereo partly drawn) [[Fe]DAFC-L-PAF26]
- Growth promotion (in words) [1]: low hyphal growth without sporulation
- MIC 24 h ([2]; AMM, 37 °C, 24 h): >16 µg/mL
- MIC 48 h ([2]; AMM, 37 °C): >16 µg/mL
- MIC 24 h ([2]; ATCC 46645, 24 h): >8.4 µM

Compound: H-Asn-Leu-[dF]-OH [NLF]
- Antifungal activity (in words) ([2]; AMM, 0.031–16 µg/mL tested): lacked antifungal potential

Compound: RKKWFW [HOOC-L-PAF26-NH2]
- MIC 24 h ([2]; AMM, 37 °C, 24 h): >16 µg/mL
- MIC 48 h ([2]; AMM, 37 °C): >16 µg/mL
- MIC 24 h ([2]; ATCC 46645, 24 h): >16.8 µM

Compound: CC(=O)NC1CCCN(O)C(=O)/C=C(/C)CCOC(=O)C(NC(=O)CCC(=O)N[C@H](CCCNC(=N)N)C(=O)N[C@H](CCCCN)C(=O)N[C@H](CCCCN)C(=O)N[C@H](Cc2c[nH]c3ccccc23)C(=O)N[C@H](Cc2ccccc2)C(=O)N[C@H](Cc2c[nH]c3ccccc23)C(N)=O)CCCN(O)C(=O)/C=C(/C)CCOC(=O)C(NC(C)=O)CCCN(O)C(=O)/C=C(/C)CCOC1=O (stereo partly drawn) [[Fe]DAFC-D-PAF26]
- Growth promotion (in words) [1]: low hyphal growth without sporulation
- MIC 24 h ([2]; AMM, 37 °C, 24 h): >16 µg/mL
- MIC 48 h ([2]; AMM, 37 °C): >16 µg/mL
- MIC 24 h ([2]; ATCC 46645, 24 h): >8.4 µM
- MIC 24 h ([3]; 0.1 × PDB, 37 °C, 24 h): >16 µg/mL
- MIC 48 h ([3]; 0.1 × PDB, 37 °C): >16 µg/mL
- MIC 24 h ([3]; ATCC 46645, 24 h): >8.4 µM

Compound: CC(=O)N[C@@H]1CCCN(O)C(=O)/C=C(/C)CCOC(=O)[C@H](NC(=O)CCC(=O)N[C@@H](CCCNC(=N)N)C(=O)N[C@@H](CCCCN)C(=O)N[C@@H](CCCCN)C(=O)N[C@@H](Cc2c[nH]c3ccccc23)C(=O)N[C@@H](Cc2ccccc2)C(=O)N[C@@H](Cc2c[nH]c3ccccc23)C(N)=O)CCCN(O)C(=O)/C=C(/C)CCOC(=O)[C@H](NC(C)=O)CCCN(O)C(=O)/C=C(/C)CCOC1=O [[^68Ga]Ga-DAFC-L-PAF26, metal not drawn]
- logD [5]: -3.13 ± 0.02
- Uptake into A. fumigatus hyphae normalized to uptake of [68Ga]Ga-TAFC [6]: 90%
